According to patent publication US20230295182A1, “SPIRO DERIVATIVES OF ALPHA-D-GALACTOPYRANOSIDES” (Idorsia Pharmaceuticals Ltd, priority 2020, published 2023):

Tests used:
human Gal-3 (hGal-3) = human Gal-3 (hGal-3) (Homo sapiens (Human), UniProt P17931); test: Competitive binding assay: biotinylated hGal-3 to microplate-adsorbed asialofetuin (ASF); conditions: Activity on hGal-3; binding to ASF-coated plates, 3 hours at 4° C.; mean values
Method in brief: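 Biotinylated hGal-3 (300-1000 ng/mL) binding to plate-adsorbed asialofetuin, with DMSO-diluted compound added, incubated 3 h at 4 °C. After washing, bound protein detected with streptavidin-peroxidase (80 ng/mL, 1 h, 4 °C) and ABTS substrate, read spectrophotometrically. IC50 given as mean of several measurements.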

human Gal-1 (hGal-1) = human Gal-1 (hGal-1) (Homo sapiens, UniProt P09382); test: Competitive binding assay: biotinylated hGal-1 to microplate-adsorbed asialofetuin (ASF); conditions: Activities on hGal-1; binding to ASF-coated plates, 3 hours at 4° C.; mean values; read-out: Gal-1 IC50
Method in brief: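 Plate-adsorbed asialofetuin is incubated 3 h at 4 °C with biotinylated hGal-1, optionally its all-serine-substituted cysteine variant, plus compound dilutions. ABTS color after 1 h streptavidin-peroxidase (80 ng/mL) at 4 °C reports binding. Reported IC50 is a mean across repeat runs.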

Sequence of human Gal-3 (hGal-3) (P17931 whole entry): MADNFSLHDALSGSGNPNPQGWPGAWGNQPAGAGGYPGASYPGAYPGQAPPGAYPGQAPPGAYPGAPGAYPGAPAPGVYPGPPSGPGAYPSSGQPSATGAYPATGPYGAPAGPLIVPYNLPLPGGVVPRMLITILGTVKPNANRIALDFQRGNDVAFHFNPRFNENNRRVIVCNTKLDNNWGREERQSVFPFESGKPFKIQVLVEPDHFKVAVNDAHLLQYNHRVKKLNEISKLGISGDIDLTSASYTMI
Sequence of human Gal-1 (hGal-1) (P09382 2-135 limits assumed): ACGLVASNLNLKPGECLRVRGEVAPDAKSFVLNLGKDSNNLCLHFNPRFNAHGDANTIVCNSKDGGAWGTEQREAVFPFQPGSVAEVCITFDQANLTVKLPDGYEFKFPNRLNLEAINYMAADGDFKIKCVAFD

Row | IC50 (human Gal-3 (hGal-3)) [µM] | IC50 (human Gal-1 (hGal-1)) [µM] | SMILES
1 | 0.19 | 4.6 | CO[C@@H]1[C@@H](n2cc(-c3ccc(C)c(F)c3F)nn2)[C@@H](O)[C@@H](CO)O[C@@H]1CC1=NO[C@]2(CC[C@H](C(C)(C)O)CC2)C1 [Example 1.62, (2R,3R,4S,5R,6R)-4-(4-(2,3-difluoro-4-methylphenyl)-1H-1,2,3-triazol-1-yl)-2-(hydroxymethyl)-6-(((5r,8R)-8-(2-hydroxypropan-2-yl)-1-oxa-2-azaspiro[4.5]dec-2-en-3-yl)methyl)-5-methoxytetrahydro-2H-pyran-3-ol]
2 | 0.18 | 3.4 | CO[C@@H]1[C@@H](n2cc(-c3ccc(C)c(F)c3F)nn2)[C@@H](O)[C@@H](CO)O[C@@H]1CC1=NO[C@]2(CC[C@@H](C(C)(C)O)CC2)C1 [Example 1.63, (2R,3R,4S,5R,6R)-4-(4-(2,3-difluoro-4-methylphenyl)-1H-1,2,3-triazol-1-yl)-2-(hydroxymethyl)-6-(((5s,8S)-8-(2-hydroxypropan-2-yl)-1-oxa-2-azaspiro[4.5]dec-2-en-3-yl)methyl)-5-methoxytetrahydro-2H-pyran-3-ol]
3 | 0.49 | 2.4 | CO[C@@H]1[C@@H](n2cc(-c3ccc(Cl)c(F)c3F)nn2)[C@@H](O)[C@@H](CO)O[C@@H]1CC1=NO[C@]2(CC[C@H](C(C)(C)O)CC2)C1 [Example 1.64, (2R,3R,4S,5R,6R)-4-(4-(4-chloro-2,3-difluorophenyl)-1H-1,2,3-triazol-1-yl)-2-(hydroxymethyl)-6-(((5r,8R)-8-(2-hydroxypropan-2-yl)-1-oxa-2-azaspiro[4.5]dec-2-en-3-yl)methyl)-5-methoxytetrahydro-2H-pyran-3-ol]
4 | 0.12 | 2.7 | CO[C@@H]1[C@@H](n2cc(-c3ccc(Cl)c(F)c3F)nn2)[C@@H](O)[C@@H](CO)O[C@@H]1CC1=NO[C@]2(CC[C@@H](C(C)(C)O)CC2)C1 [Example 1.65, (2R,3R,4S,5R,6R)-4-(4-(4-chloro-2,3-difluorophenyl)-1H-1,2,3-triazol-1-yl)-2-(hydroxymethyl)-6-(((5s,8S)-8-(2-hydroxypropan-2-yl)-1-oxa-2-azaspiro[4.5]dec-2-en-3-yl)methyl)-5-methoxytetrahydro-2H-pyran-3-ol]
5 | 0.25 | 2.7 | CO[C@@H]1[C@@H](n2cc(-c3cc(F)c(F)c(F)c3)nn2)[C@@H](O)[C@@H](CO)O[C@@H]1CC1=NOC2(CCC(=O)CC2)C1 [Example 1.66, 3-(((2R,3R,4S,5R,6R)-5-hydroxy-6-(hydroxymethyl)-3-methoxy-4-(4-(3,4,5-trifluorophenyl)-1H-1,2,3-triazol-1-yl)tetrahydro-2H-pyran-2-yl)methyl)-1-oxa-2-azaspiro[4.5]dec-2-en-8-one]
6 | 0.22 | 3.7 | COC(=O)CO[C@@H]1[C@@H](n2cc(-c3cc(F)c(F)c(F)c3)nn2)[C@@H](O)[C@@H](CO)O[C@@H]1CC1=NOC2(CCCCC2)C1 [Example 1.68, methyl 2-(((2R,3R,4S,5R,6R)-2-((1-oxa-2-azaspiro[4.5]dec-2-en-3-yl)methyl)-5-hydroxy-6-(hydroxymethyl)-4-(4-(3,4,5-trifluorophenyl)-1H-1,2,3-triazol-1-yl)tetrahydro-2H-pyran-3-yl)oxy)acetate]
7 | 0.3 | 3.1 | CCO[C@@H]1[C@@H](n2cc(-c3cc(F)c(F)c(F)c3)nn2)[C@@H](O)[C@@H](CO)O[C@@H]1CC1=NOC2(CCCCC2)C1 [Example 1.69, (2R,3R,4S,5R,6R)-6-((1-oxa-2-azaspiro[4.5]dec-2-en-3-yl)methyl)-5-ethoxy-2-(hydroxymethyl)-4-(4-(3,4,5-trifluorophenyl)-1H-1,2,3-triazol-1-yl)tetrahydro-2H-pyran-3-ol]
8 | 0.24 | 5.1 | CNC(=O)CO[C@@H]1[C@@H](n2cc(-c3cc(F)c(F)c(F)c3)nn2)[C@@H](O)[C@@H](CO)O[C@@H]1CC1=NOC2(CCCCC2)C1 [Example 1.70, 2-(((2R,3R,4S,5R,6R)-2-((1-oxa-2-azaspiro[4.5]dec-2-en-3-yl)methyl)-5-hydroxy-6-(hydroxymethyl)-4-(4-(3,4,5-trifluorophenyl)-1H-1,2,3-triazol-1-yl)tetrahydro-2H-pyran-3-yl)oxy)-N-methylacetamide]
9 | 0.2 | 2.9 | O=C(CO[C@@H]1[C@@H](n2cc(-c3cc(F)c(F)c(F)c3)nn2)[C@@H](O)[C@@H](CO)O[C@@H]1CC1=NOC2(CCCCC2)C1)N1CCOCC1 [Example 1.71, 2-(((2R,3R,4S,5R,6R)-2-((1-oxa-2-azaspiro[4.5]dec-2-en-3-yl)methyl)-5-hydroxy-6-(hydroxymethyl)-4-(4-(3,4,5-trifluorophenyl)-1H-1,2,3-triazol-1-yl)tetrahydro-2H-pyran-3-yl)oxy)-1-morpholinoethan-1-one]
10 | 0.14 | 5.6 | COC(=O)CO[C@@H]1[C@@H](n2cc(-c3ccc(C)c(F)c3F)nn2)[C@@H](O)[C@@H](CO)O[C@@H]1CC1=NOC2(CCC(F)(F)CC2)C1 [Example 1.72, methyl 2-(((2R,3R,4S,5R,6R)-2-((8,8-difluoro-1-oxa-2-azaspiro[4.5]dec-2-en-3-yl)methyl)-4-(4-(2,3-difluoro-4-methylphenyl)-1H-1,2,3-triazol-1-yl)-5-hydroxy-6-(hydroxymethyl)tetrahydro-2H-pyran-3-yl)oxy)acetate]
11 | 0.11 | 6.5 | NC(=O)O[C@@H]1[C@@H](n2cc(-c3cc(F)c(F)c(F)c3)nn2)[C@@H](O)[C@@H](CO)O[C@@H]1CC1=NOC2(CCCCC2)C1 [Example 1.73, (2R,3R,4S,5R,6R)-2-((1-oxa-2-azaspiro[4.5]dec-2-en-3-yl)methyl)-5-hydroxy-6-(hydroxymethyl)-4-(4-(3,4,5-trifluorophenyl)-1H-1,2,3-triazol-1-yl)tetrahydro-2H-pyran-3-yl carbamate]
12 | 0.12 | 2.4 | CO[C@@H]1[C@@H](n2cc(-c3ccc(C)c(F)c3F)nn2)[C@@H](O)[C@@H](CO)O[C@@H]1CC1=NO[C@]2(CC[C@H](NCC(F)F)CC2)C1 [Example 1.74, (2R,3R,4S,5R,6R)-4-(4-(2,3-difluoro-4-methylphenyl)-1H-1,2,3-triazol-1-yl)-6-(((5r,8R)-8-((2,2-difluoroethyl)amino)-1-oxa-2-azaspiro[4.5]dec-2-en-3-yl)methyl)-2-(hydroxymethyl)-5-methoxytetrahydro-2H-pyran-3-ol]
13 | 0.31 | 7.2 | CO[C@@H]1[C@@H](n2cc(-c3ccc(Cl)c(F)c3F)nn2)[C@@H](O)[C@@H](CO)O[C@@H]1CC1=NOC2(C1)CN(C(=O)OC(C)(C)C)C2 [Example 1.80, tert-butyl 7-(((2R,3R,4S,5R,6R)-4-(4-(4-chloro-2,3-difluorophenyl)-1H-1,2,3-triazol-1-yl)-5-hydroxy-6-(hydroxymethyl)-3-methoxytetrahydro-2H-pyran-2-yl)methyl)-5-oxa-2,6-diazaspiro[3.4]oct-6-ene-2-carboxylate]
14 | 0.06 | 2.37 | CO[C@@H]1[C@@H](n2cc(-c3ccc(C)c(F)c3F)nn2)[C@@H](O)[C@@H](CO)O[C@@H]1CC1=NOC2(C1)CC1CCC2C1 (stereo partly drawn) [Example 1.81, (2R,3R,4S,5R,6R)-6-((4′H-spiro[bicyclo[2.2.1]heptane-2,5′-isoxazol]-3′-yl)methyl)-4-(4-(2,3-difluoro-4-methylphenyl)-1H-1,2,3-triazol-1-yl)-2-(hydroxymethyl)-5-methoxytetrahydro-2H-pyran-3-ol]
